The METLIN SMRT retention time set (Domingo-Almenara et al. 2019)

Experiment: gradient 5% acetonitrile 3 min, to 50% in 2 min, to 85% in 15 min, held 3 min, 100 µL/min
Conditions: column: Zorbax Extend-C18 2.1 x 50 mm; eluents: water / acetonitrile, 0.1% formic acid
Method in brief: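 Standards, all pure, were combined into mixtures of ~100 molecules and run at 100 μL/min on a Zorbax Extend-C18 column (2.1 × 50 mm, 1.8 μm) with water and acetonitrile, each containing 0.1% formic acid. A coupled quadrupole time-of-flight mass spectrometer operated in positive and negative ionization mode. Retention time values come from computationally picked adduct peaks, each inspected manually.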

| SMILES | RP-LC retention time |
| --- | --- |
| COc1cc(NC(=O)N2CCCC(C)(C(=O)NCc3ccc(F)cc3)C2)cc(OC)c1OC (stereo unspecified) | 778 s |
| O=C(Cc1ccc(NC(=O)NC2CC2)cc1)NCC(F)(F)F | 611 s |
| CCN1CCN(c2cc(C(=O)O)c3cc(NC(=O)c4ccc(Br)cc4)ccc3n2)CC1 | 610 s |
| Cc1ccc2[nH]cc(CCNC(=O)CS(=O)Cc3cnn(-c4ccccc4)c3-n3cccc3)c2c1 (stereo unspecified) | 875 s |
| Cc1noc(C)c1CCNC(=O)CCCn1c2ccccc2c2cnn(C)c(=O)c21 | 713 s |
| CC(C)CNC(=O)c1nc2cccnc2n(C)c1=O | 701 s |
| Cc1ccccc1CNC(=O)CS(=O)Cc1cnn(-c2ccccc2)c1-n1cccc1 (stereo unspecified) | 875 s |
| CCN(Cc1c(C)nn(CC)c1C)C(=O)Cn1nc2n(c1=O)CCC(N)CC2 (stereo unspecified) | 551 s |
| CCOC(=O)c1c(C)n(C)c2ccc(OCCN(C)C)cc12 | 632 s |
| Cc1nn(CC(=O)N2CCN(c3ccccc3)CC2)c(=O)c2nc(-c3ccccc3)sc12 | 924 s |
| Cc1ccc(-c2cn(CC(=O)N3CCN(c4ccc(C)cc4)CC3)c(=O)o2)cc1 | 975 s |
| CCOc1ccc(NC(=O)Cn2ncc3c(c2=O)N(C2CC2)C(=O)CS3)cc1 | 671 s |
| O=C(CSc1nccc2c1ccn2Cc1ccc(F)cc1)NCc1ccco1 | 1040 s |
| Cc1nc(Cn2cccc2C(=O)N2CCN(c3cccc(Cl)c3)CC2)no1 | 974 s |
| COc1ccc(C(=O)N2CCc3ccc(CNC(=O)NCC4CCCO4)cc32)cc1 (stereo unspecified) | 712 s |
| COC(=O)c1ccc2c(=O)n(-c3cc(C)cc(C)c3)c(N3CCN(C(C)C)CC3)nc2c1 | 695 s |
| COC(=O)c1ncn2c1C(=O)N(Cc1ccc(F)cc1)C(C)(C(=O)NCc1ccc(C)cc1)C2 (stereo unspecified) | 772 s |
| CCn1cc(-c2ccc(F)cc2)cc1C(=O)O | 861 s |
| O=C(NCCc1cccs1)c1cccc2c1CCN2C(=O)Nc1ccccc1 | 895 s |
| COCCN1C(=O)c2ccccc2C(C(=O)NCc2ccccc2OC)C1c1ccc(F)cc1 (stereo unspecified) | 924 s |
| CN(CCNC(=O)Cn1c2ccccc2c2cnn(C)c(=O)c21)Cc1ccccc1 | 640 s |
| CCOc1ccc(-c2csc(NC(=O)CCn3c(=O)oc4ccccc43)n2)cc1 | 997 s |
| COc1ccc(OCc2noc(CNC(=O)NCc3ccc(F)cc3)n2)cc1 | 770 s |

| SMILES | RP-LC retention time |
| --- | --- |
| CCN(CC)C(=O)N1CC(Cn2c(C)cnc2-c2ccncc2)C1 | 568 s |
| Cc1ccc(N2C(=O)C3N=NN(c4ccc(C)c(Cl)c4)C3C2=O)cc1F (stereo unspecified) | 836 s |
| CC(C)NP(=O)(NC(C)C)OP(=O)(NC(C)C)NC(C)C | 762 s |
| Cc1c(C(=O)NCC2CC2)cnn1-c1ccc(-c2nc(C3CC3)no2)cn1 | 810 s |
| CCC(=O)NCc1nc2c(n1C)CN(C(=O)c1cccc(Br)c1)CC2 | 591 s |
| CC1(C)C(=O)N(CC(=O)Nc2ccc3c(c2)OCO3)c2ccccc21 | 823 s |
| COc1cccc(NC(=O)c2c(C)oc3nc(C)nc(N4CCCC4)c23)c1 | 743 s |
| CC(C)n1c(N2CCCN(C(=O)COc3ccc(Cl)cc3)CC2)cc(=O)n(C(C)C)c1=O | 914 s |
| CCOc1ccccc1C(=O)NC1CCN(c2cc(-c3cccs3)[nH]n2)C1 (stereo unspecified) | 769 s |
| N#Cc1cnn(-c2cccc(Cl)c2)c1-n1cccc1 | 1070 s |
| O=C(NC1CC1)c1nc(-c2ccncc2)cs1 | 574 s |
| COCCn1cc(CCNC(=O)Nc2cccc(F)c2)c2cccnc21 | 732 s |
| CCc1cc(C(=O)Nc2ccc(C)c(C)c2)nc2ccnn12 | 1150 s |
| COc1ccc(CNC(=O)Cc2nnc(-c3ccc4ncccc4c3)o2)c(OC)c1 | 841 s |
| CCc1nc2cc(-c3noc(Cc4ccc(OC)c(Cl)c4)n3)ccc2o1 | 1120 s |
| CCNc1nc(NC(C)C)nc(-n2cnc(SC)n2)n1 | 897 s |
| CC(C)(C)NC(=O)N1CCCC(c2nc(CCOCC3CCOCC3)no2)C1 (stereo unspecified) | 728 s |
| Cc1ccc(-c2noc(Cn3c(=O)n(-c4ccccc4F)c(=O)c4sccc43)n2)cc1C | 1090 s |
| O=C(Nc1c(-c2ccc(F)cc2)nc2ccccn12)c1cccc(C(F)(F)F)c1 | 748 s |
| CCOc1ccccc1NC(=O)CN1C(=O)C(C)(C)c2ccccc21 | 976 s |
| Cc1cnc(C2CCC2)n1CC1CCN(C(=O)NC2CCCCC2)CC1 | 657 s |
| Cc1ccn2cc(-c3ccc(NS(=O)(=O)c4ccc(Cl)c(Cl)c4)cc3)nc2n1 | 743 s |

Other lines, results leading:

| RP-LC retention time | SMILES |
| --- | --- |
| 837 s | CC(C)NC(=O)N1CCC(N2C(=O)C3(CCCC3)C2c2ccccc2)CC1 (stereo unspecified) |
| 586 s | CSc1ccccc1CN1CCC(CNC(=O)C(=O)Nc2ccc3c(c2)OCO3)CC1 |
| 778 s | O=C(C1CCCN(c2cnc3nccnc3c2)C1)N1CCN(c2ccccc2F)CC1 (stereo unspecified) |
| 748 s | O=C(CCC1CCCN(S(=O)(=O)c2ccccc2F)C1)NC1CCS(=O)(=O)C1 (stereo unspecified) |
| 913 s | Cc1ccc(-n2c(N3CCCC(C(=O)NCCc4cccs4)C3)nc3ccsc3c2=O)cc1 (stereo unspecified) |
| 914 s | O=C(NCCc1ccccc1)N1CCC(c2noc(-c3ccccc3)n2)C1 (stereo unspecified) |
| 818 s | O=S(=O)(Cc1ccc(F)cc1)NCC1(c2ccccc2)CCOCC1 |
| 694 s | COc1ccccc1CNS(=O)(=O)c1cc(-c2[nH]ncc2C(=O)N2CCCC2)oc1C |
| 895 s | CC(=O)N1c2ccc(S(=O)(=O)N3CCC(C(=O)Nc4cccc(Cl)c4C)CC3)cc2CC1C (stereo unspecified) |
| 938 s | O=c1n(Cc2cccc(C(F)(F)F)c2)nc2ccc(S(=O)(=O)N3CCCC3)cn12 |
| 547 s | CC(C)CN1CCN(C(=O)CCC2CCCN(c3cc(NC4CC4)ncn3)C2)CC1 (stereo unspecified) |
| 718 s | CCCN1CCn2cc(S(=O)(=O)Nc3ccccc3F)cc2C1=O |
| 818 s | COC(=O)c1cc(S(=O)(=O)N2CCCC2C(=O)Nc2ccc(OC)cc2)cn1C (stereo unspecified) |
| 679 s | CCOCCCNC(=O)C1CCN(c2cnn(Cc3ccccc3)c(=O)c2)CC1 |
| 785 s | Cc1ccc(NC(=O)C2CCCN(c3ncnc4c3nc3n4CCCCC3)C2)cc1F (stereo unspecified) |
| 747 s | Cc1c2cnn(CC(=O)NCC3CCCO3)c(=O)c2c(C)n1Cc1ccccc1F (stereo unspecified) |
| 656 s | CS(=O)(=O)N(Cc1ccccn1)C1CN(C(=O)CCc2nc3ccccc3s2)C1 |
| 831 s | O=C(CN1CCN(Cc2ccccc2F)C1=O)NCc1cccc(Cl)c1 |
| 928 s | O=C(CN1C(=O)C(C(=O)N2CCCC2)Sc2ccccc21)NCc1ccccc1Cl (stereo unspecified) |
| 777 s | COC(=O)c1cccc(C(=O)N2CCN(c3ccccc3F)CC2)n1 |
| 969 s | CCC1Oc2ccc(S(=O)(=O)N3CCC(C(=O)Nc4ccc(F)c(Cl)c4)CC3)cc2NC1=O (stereo unspecified) |
